The text below walks through data of patent US20130203662A1, “Mini-Hepcidin Peptides and Methods of Using Thereof” (priority 2008, published 2013).

One assay has as its system C57/B16J mice. In words: Serum iron assay in mice after peptide administration. In kind it is in vivo. The settings on record: i.p., 50 μg per mouse in PBS, 4 hours, vs PBS.
Assay [1] addresses T1, ferroportin fused to green fluorescent protein (ECR293/Fpn-GFP cells) (Mus musculus, UniProt Q9JHI9).
T1 sequence (Q9JHI9 1-570): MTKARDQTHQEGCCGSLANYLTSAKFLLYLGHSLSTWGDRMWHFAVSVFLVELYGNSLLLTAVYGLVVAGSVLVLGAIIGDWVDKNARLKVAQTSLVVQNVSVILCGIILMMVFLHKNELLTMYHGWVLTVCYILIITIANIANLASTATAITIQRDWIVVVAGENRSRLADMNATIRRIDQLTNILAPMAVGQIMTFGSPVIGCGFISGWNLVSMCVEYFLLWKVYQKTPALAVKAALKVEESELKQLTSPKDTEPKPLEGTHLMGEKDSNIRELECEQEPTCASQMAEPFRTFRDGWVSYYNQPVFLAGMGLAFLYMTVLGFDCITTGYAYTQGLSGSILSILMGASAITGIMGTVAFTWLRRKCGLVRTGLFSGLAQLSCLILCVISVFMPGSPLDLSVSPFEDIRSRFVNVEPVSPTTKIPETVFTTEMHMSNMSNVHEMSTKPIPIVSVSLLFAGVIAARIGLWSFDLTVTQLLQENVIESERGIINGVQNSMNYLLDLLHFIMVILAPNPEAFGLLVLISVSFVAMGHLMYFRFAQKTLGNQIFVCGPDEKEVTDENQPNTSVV
The experiment in a line: Flow cytometry of ferroportin-GFP internalization and degradation in ECR293/Fpn-GFP cells. It counts as cell-based. Conditions: for DC50: read-out: EC50 (the source's name); for relative hepcidin activity of substitutions in Hep25: Hep25 variants, FIG. 1, 2A, 2B. The protocol:
In vitro activity may be measured by the dose-dependent loss of fluorescence of cells engineered to display ferroportin fused to green fluorescent protein as in Nemeth et al. (2006) Blood 107:328-33. […]
FLOW CYTOMETRY. The activity of peptides of the present invention was measured by flow cytometry as previously described. See Nemeth et al. (2006) Blood 107:328-333, which is herein incorporated by reference. ECR293/Fpn-GFP, a cell line stably transfected with a ponasterone-inducible ferroportin construct tagged at the C-terminus with green fluorescent protein was used. See Nemeth et al. (2004) Science 306:2090-2093, which is herein incorporated by reference. Briefly, the cells were plated on poly-D-lysine coated plates in the presence of 20 μM FAC, with or without 10 μM ponasterone. After 24 hours, ponasterone was washed off, and cells were treated with peptides for 24 hours. Cells were then trypsinized and resuspended at 1×10^6 cells/ml, and the intensity of green fluorescence was analyzed by flow cytometry. […] Cells not induced with ponasterone to express Fpn-GFP were used to establish a gate to exclude background fluorescence. Cells induced with ponasterone, but not treated with any peptides, were used as the positive control. Each peptide was tested over the range of concentrations (0, 0.01, 0.03, 0.1, 0.3, 1, 3 and 10 μM). Each peptide treatment was repeated independently 3 to 6 times.
Background: In flow cytometry, cells or beads pass a laser one at a time.

The mark [2] stands for this setting: concentration eliciting 50% of maximal loss of fluorescence generated by reference Hep25, 24 hours.
Where [3] appears, read: flow-cytometry assay of ferroportin-GFP internalization, FIG. 3.

Read-outs that look alike come from different tables or passages of the source. Square brackets hold non-standard residues; d marks the D form. Ends that are not written are not given here. Peptide text beside a SMILES is read from it. Oic = O=C(O)[C@@H]1C[C@@H]2CCCC[C@@H]2N1; Dip = N[C@H](C(=O)O)C(c1ccccc1)c1ccccc1; β3hF = N[C@H](CC(=O)O)Cc1ccccc1; β3hP = O=C(O)C[C@@H]1CCCN1

Description for C57/B16J mice: Serum iron assay. The decrease in serum iron after peptide administration is the principal measure of hepcidin activity. Thus, as provided herein, the hepcidin activity of selected peptides of the present invention were assayed in vivo by measuring serum iron in test subjects. […] Two weeks before the experiment, the mice were switched to a diet containing about 2-4 ppm iron (Harlan Teklad, Indianapolis, Ind.) in order to suppress endogenous hepcidin. Peptide stocks were diluted to desired concentrations in sterile phosphate buffered saline (PBS) or other diluents as described next. […] Mice were sacrificed 4 hours later, blood was collected by cardiac puncture, and serum was separated using MICROTAINER tubes (Becton Dickinson, Franklin Lakes, N.J.). Serum iron was determined by using a colorimetric assay (Diagnostic Chemicals, Oxford, Conn.), which was modified for the microplate format so that 10 μl serum was used per measurement. The results were expressed as the percentage of decrease in serum iron when compared with the average value of serum iron levels in PBS-treated mice.

On to `CC[C@H](C)[C@H](NC(=O)[C@H](CS)NC(=O)[C@@H](NC(=O)[C@@H]1CCCN1C(=O)[C@H](Cc1ccccc1)NC(=O)[C@H](Cc1c[nH]cn1)NC(=O)[C@@H](NC(=O)[C@@H](N)CC(=O)O)[C@@H](C)O)[C@@H](C)CC)C(=O)N[C@@H](Cc1ccccc1)C(N)=O` [Hep9], for which, in the assay with C57/B16J mice, the serum iron entry was “did not result in a serum iron decrease”.
By EC50 is commonly meant the concentration needed to bring the measured effect to its halfway point. `CC[C@H](C)[C@H](NC(=O)[C@H](CS)NC(=O)[C@@H](NC(=O)[C@@H]1CCCN1C(=O)[C@H](Cc1ccccc1)NC(=O)[C@H](Cc1c[nH]cn1)NC(=O)[C@@H](NC(=O)[C@@H](N)CC(=O)O)[C@@H](C)O)[C@@H](C)CC)C(=O)N[C@@H](Cc1ccccc1)C(=O)N1CCC[C@@H]1C(=O)N1CCC[C@H]1CC(=O)N[C@@H](CCCCN)C(N)=O` [Pr17] yielded an EC50 in assay [1] (setting [2]) of 300 nM.
Regarding `CC[C@H](C)[C@H](NC(=O)[C@H](CS)NC(=O)[C@@H](NC(=O)[C@@H]1CCCN1C(=O)[C@H](Cc1ccccc1)NC(=O)[C@H](Cc1c[nH]cn1)NC(=O)[C@@H](NC(=O)[C@@H](N)CC(=O)O)[C@@H](C)O)[C@@H](C)CC)C(=O)N[C@@H](Cc1ccccc1)C(=O)N1CCC[C@@H]1C(=O)N1CCC[C@H]1CC(=O)N[C@@H](CCCNC(=N)N)C(N)=O` [Pr18], the EC50 in assay [1] (setting [2]) is 1000 nM.
For `CC[C@H](C)[C@H](NC(=O)[C@H](CS)NC(=O)[C@@H](NC(=O)[C@@H]1CCCN1C(=O)[C@H](Cc1ccccc1)NC(=O)[C@H](Cc1c[nH]cn1)NC(=O)[C@@H](NC(=O)[C@@H](N)CC(=O)O)[C@@H](C)O)[C@@H](C)CC)C(=O)N[C@H](CC(=O)N1CCC[C@@H]1C(=O)N1CCC[C@H]1C(=O)N[C@@H](CCCCN)C(N)=O)Cc1ccccc1` [Pr19] (H-DTHFPICI[β3hF][dP]PK-NH2), the 50% effective concentration (EC50) in assay [1] (setting [2]) was 700 nM.
For the molecule `CC[C@H](C)[C@H](NC(=O)[C@H](CS)NC(=O)[C@@H](NC(=O)[C@@H]1CCCN1C(=O)[C@H](Cc1ccccc1)NC(=O)[C@H](Cc1c[nH]cn1)NC(=O)[C@@H](NC(=O)[C@@H](N)CC(=O)O)[C@@H](C)O)[C@@H](C)CC)C(=O)N[C@H](CC(=O)N1CCC[C@@H]1C(=O)N1CCC[C@H]1C(=O)N[C@@H](CCCNC(=N)N)C(N)=O)Cc1ccccc1` [Pr20] (H-DTHFPICI[β3hF][dP]PR-NH2), in assay [1] (setting [2]), the DC50 was determined as 200 nM.
For the molecule `CC[C@H](C)[C@H](NC(=O)[C@H](CS)NC(=O)[C@@H](NC(=O)[C@@H]1CCCN1C(=O)[C@H](Cc1ccccc1)NC(=O)[C@H](Cc1c[nH]cn1)NC(=O)[C@@H](NC(=O)[C@@H](N)CC(=O)O)[C@@H](C)O)[C@@H](C)CC)C(=O)N[C@H](CC(=O)N1CCC[C@@H]1C(=O)N1CCC[C@H]1CC(=O)N[C@@H](CCCCN)C(N)=O)Cc1ccccc1` [Pr21] (H-DTHFPICI[β3hF][dP][β3hP]K-NH2), the DC50 in assay [1] (setting [2]) stood at 500 nM.
Take `CC[C@H](C)[C@H](NC(=O)[C@H](CS)NC(=O)[C@@H](NC(=O)[C@@H]1CCCN1C(=O)[C@H](Cc1ccccc1)NC(=O)[C@H](Cc1c[nH]cn1)NC(=O)[C@@H](NC(=O)[C@@H](N)CC(=O)O)[C@@H](C)O)[C@@H](C)CC)C(=O)N[C@H](CC(=O)N1CCC[C@@H]1C(=O)N1CCC[C@H]1CC(=O)N[C@@H](CCCNC(=N)N)C(N)=O)Cc1ccccc1` [Pr22] (H-DTHFPICI[β3hF][dP][β3hP]R-NH2): the EC50 in assay [1] (setting [2]) amounted to 600 nM.
In the case of `CC[C@H](C)[C@H](NC(=O)[C@H](CS)NC(=O)[C@@H](NC(=O)[C@@H]1CCCN1C(=O)[C@@H](NC(=O)[C@H](Cc1c[nH]cn1)NC(=O)[C@@H](NC(=O)[C@@H](N)CC(=O)O)[C@@H](C)O)C(c1ccccc1)c1ccccc1)[C@@H](C)CC)C(=O)N[C@H](C(N)=O)C(c1ccccc1)c1ccccc1` [Pr39] (H-DTH[Dip]PICI[Dip]-NH2), it took 35 nM to reach a half-maximal effect in assay [1] (setting [2]) (EC50).
Regarding `CC[C@H](C)[C@H](NC(=O)[C@H](CS)NC(=O)[C@@H](NC(=O)[C@@H]1CCCN1C(=O)[C@@H](NC(=O)[C@@H](N)CC(=O)O)C(c1ccccc1)c1ccccc1)[C@@H](C)CC)C(=O)N[C@H](C(N)=O)C(c1ccccc1)c1ccccc1` [Pr41] (H-D[Dip]PICI[Dip]-NH2), in assay [1], the 50% effective concentration (EC50) was 300 nM.
With `C[C@@H](O)[C@H](NC(=O)[C@@H](N)CC(=O)O)C(=O)N[C@@H](Cc1c[nH]cn1)C(=O)N[C@H](C(=O)N1CCC[C@H]1C(=O)N[C@@H](CCCNC(=N)N)C(=O)N[C@@H](CS)C(=O)N[C@@H](CCCNC(=N)N)C(=O)N[C@H](C(N)=O)C(c1ccccc1)c1ccccc1)C(c1ccccc1)c1ccccc1` [Pr42] (H-DTH[Dip]PRCR[Dip]-NH2; N-terminus assumed), in assay [1] (setting [2]), the EC50 came out at 30 nM.
Turning to `C[C@@H](O)[C@H](NC(=O)[C@@H](N)CC(=O)O)C(=O)N[C@@H](Cc1c[nH]cn1)C(=O)N[C@H](C(=O)N1CCC[C@H]1C(=O)N[C@H](CCCNC(=N)N)C(=O)N[C@@H](CS)C(=O)N[C@H](CCCNC(=N)N)C(=O)N[C@H](C(N)=O)C(c1ccccc1)c1ccccc1)C(c1ccccc1)c1ccccc1` [Pr43] (H-DTH[Dip]P[dR]C[dR][Dip]-NH2), the EC50 in assay [1] (setting [2]) turned out to be 200 nM.
For `CC[C@H](C)[C@H](NC(=O)[C@H](CS)NC(=O)[C@@H](NC(=O)[C@@H]1C[C@@H]2CCCC[C@@H]2N1C(=O)[C@@H](NC(=O)[C@H](Cc1c[nH]cn1)NC(=O)[C@@H](NC(=O)[C@@H](N)CC(=O)O)[C@@H](C)O)C(c1ccccc1)c1ccccc1)[C@@H](C)CC)C(=O)N[C@@H](Cc1ccccc1)C(N)=O` [Pr44] (H-DTH[Dip][Oic]ICIF-NH2; N-terminus assumed), in assay [1] (setting [2]), the DC50 was determined as 30 nM.
On to `CC[C@H](C)[C@H](NC(=O)[C@H](CS)NC(=O)[C@@H](NC(=O)[C@@H]1C[C@@H]2CCCC[C@@H]2N1C(=O)[C@@H](NC(=O)[C@H](Cc1c[nH]cn1)NC(=O)[C@@H](NC(=O)[C@@H](N)CC(=O)O)[C@@H](C)O)C(c1ccccc1)c1ccccc1)[C@@H](C)CC)C(=O)N[C@H](C(N)=O)C(c1ccccc1)c1ccccc1` [Pr45] (H-DTH[Dip][Oic]ICI[Dip]-NH2; N-terminus assumed), for which the DC50 in assay [1] (setting [2]) turned out to be 150 nM.
Same read-out and setting: then `CC[C@H](C)[C@H](NC(=O)[C@H](CCS)NC(=O)[C@@H](NC(=O)[C@@H]1CCCN1C(=O)[C@H](Cc1ccccc1)NC(=O)[C@H](Cc1c[nH]cn1)NC(=O)[C@@H](NC(=O)[C@@H](N)CC(=O)O)[C@@H](C)O)[C@@H](C)CC)C(=O)N[C@@H](Cc1ccccc1)C(N)=O` [homoC], with 900 nM; and DTHAPICIF-NH2 [Hep9F4A], with over 3000 nM; and DTHFPIAIF-NH2 [Hep9-C7A], with over 10000 nM.
In the case of DTHFPIAIFC-NH2 [Hep10], the “hepcidin activity of mini-hepcidins relative to Hep25” value in assay [1] (FIG. 3 and FIG. 4) is listed as “quite active”. For the same molecule, the DC50 in assay [1] (setting [2]) is 100 nM. Besides, in assay [1] (setting [3]), the “potency relative to Hep25 on a mass basis (times less potent)” value is “about 4 times” and the “potency relative to Hep25 on a molar basis (times less potent)” value was “about 10 times”.
Turning to DTHFPIC-NH2 [Hep7], in assay [1] (setting [2]), the DC50 is over 10000 nM.
With DTHFPICI-NH2 [Hep8], the DC50 in assay [1] (setting [2]) turned out to be 2000 nM.
As to DTHFPISIF-NH2 [Hep9-C7S], the DC50 in assay [1] (setting [2]) was over 10000 nM.
On to “F4Y: Hep25 with F4 substituted by tyrosine (DTHYPICIFCCGCCHRSKCGMCCKT)”, for which the “relative hepcidin activity of substitutions in Hep25” value in assay [1] is listed as “substantial loss of hepcidin activity”.
For HFPIC-NH2 [Hep5], the DC50 in assay [1] (setting [2]) was over 10000 nM.
On to HFPICI-NH2 [Hep6], for which, in assay [1] (setting [2]), the DC50 came to 1000 nM.
On to HFPICIF-NH2 [Hep7ΔDT], for which the DC50 in assay [1] (setting [2]) was found to be 700 nM.
For “T2A: Hep25 with alanine substitution of residue T2 (DAHFPICIFCCGCCHRSKCGMCCKT)”, the “relative hepcidin activity of substitutions in Hep25” value in assay [1] is recorded as “did not substantially impact hepcidin activity”.
